# From ChEMBL document CHEMBL4680144, “N-thiadiazole-4-hydroxy-2-quinolone-3-carboxamides bearing heteroaromatic rings as novel antibacterial agents: Design, synthesis, biological evaluation and target identification” (Eur J Med Chem, 2020)
# Test system: Staphylococcus aureus
# Test: Antibacterial activity against wild type methicillin-sensitive Staphylococcus aureus ATCC 29213 assessed as inhibition of bacterial growth incubated for 18 to 24 hrs by broth microdilution method
# Format: functional
# Conditions: time 18-24 hrs
row,MIC [µg/mL],Structure (SMILES)
1,12.5,CCn1c(=O)c(C(=O)Nc2nnc(-c3cccc(C)c3)s2)c(O)c2ccccc21
2,12.5,CCn1c(=O)c(C(=O)Nc2nnc(C3CCCCC3)s2)c(O)c2ccccc21
3,12.5,CCCCCCc1nnc(NC(=O)c2c(O)c3ccccc3n(CC)c2=O)s1

# Continued, compound first:
row,Structure (SMILES),MIC [µg/mL]
1,CCn1c(=O)c(C(=O)Nc2nnc(-c3ccc(OC(F)F)cc3)s2)c(O)c2ccccc21,12.5
2,CCOc1cccc(-c2nnc(NC(=O)c3c(O)c4ccccc4n(CC)c3=O)s2)c1,3.12
3,CCn1c(=O)c(C(=O)Nc2nnc(C)s2)c(O)c2ccccc21,0.78
4,CCc1nnc(NC(=O)c2c(O)c3ccccc3n(CC)c2=O)s1,0.78
5,CCn1c(=O)c(C(=O)Nc2nnc(-c3cscn3)s2)c(O)c2ccccc21,0.78

# Test system: Staphylococcus aureus
# Test: Antibacterial activity against methicillin-resistant Staphylococcus aureus clinical isolate 15-1 assessed as inhibition of bacterial growth incubated for 18 to 24 hrs by broth microdilution method
# Format: functional
# Conditions: time 18-24 hrs
row,Structure (SMILES),MIC [µg/mL]
1,CCn1c(=O)c(C(=O)Nc2nnc(C)s2)c(O)c2ccccc21,2
2,CCc1nnc(NC(=O)c2c(O)c3ccccc3n(CC)c2=O)s1,2
3,CCn1c(=O)c(C(=O)Nc2nnc(-c3cscn3)s2)c(O)c2ccccc21,4

# Test system: Staphylococcus aureus
# Test: Antibacterial activity against methicillin-resistant Staphylococcus aureus clinical isolate 15-2 assessed as inhibition of bacterial growth incubated for 18 to 24 hrs by broth microdilution method
# Format: functional
# Conditions: time 18-24 hrs
row,Structure (SMILES),MIC [µg/mL]
1,CCn1c(=O)c(C(=O)Nc2nnc(C)s2)c(O)c2ccccc21,4
2,CCc1nnc(NC(=O)c2c(O)c3ccccc3n(CC)c2=O)s1,2
3,CCn1c(=O)c(C(=O)Nc2nnc(-c3cscn3)s2)c(O)c2ccccc21,4

# Test system: Staphylococcus aureus
# Test: Antibacterial activity against methicillin-resistant Staphylococcus aureus clinical isolate 15-3 assessed as inhibition of bacterial growth incubated for 18 to 24 hrs by broth microdilution method
# Format: functional
# Conditions: time 18-24 hrs
row,Structure (SMILES),MIC [µg/mL]
1,CCn1c(=O)c(C(=O)Nc2nnc(C)s2)c(O)c2ccccc21,2
2,CCc1nnc(NC(=O)c2c(O)c3ccccc3n(CC)c2=O)s1,2
3,CCn1c(=O)c(C(=O)Nc2nnc(-c3cscn3)s2)c(O)c2ccccc21,4

# Test system: Staphylococcus aureus
# Test: Antibacterial activity against methicillin-resistant Staphylococcus aureus clinical isolate 15-6 assessed as inhibition of bacterial growth incubated for 18 to 24 hrs by broth microdilution method
# Format: functional
# Conditions: time 18-24 hrs
row,Structure (SMILES),MIC [µg/mL]
1,CCn1c(=O)c(C(=O)Nc2nnc(C)s2)c(O)c2ccccc21,2
2,CCc1nnc(NC(=O)c2c(O)c3ccccc3n(CC)c2=O)s1,2
3,CCn1c(=O)c(C(=O)Nc2nnc(-c3cscn3)s2)c(O)c2ccccc21,4

# Test system: Staphylococcus aureus
# Test: Antibacterial activity against methicillin-resistant Staphylococcus aureus clinical isolate 15-7 assessed as inhibition of bacterial growth incubated for 18 to 24 hrs by broth microdilution method
# Format: functional
# Conditions: time 18-24 hrs
row,Structure (SMILES),MIC [µg/mL]
1,CCn1c(=O)c(C(=O)Nc2nnc(C)s2)c(O)c2ccccc21,4
2,CCc1nnc(NC(=O)c2c(O)c3ccccc3n(CC)c2=O)s1,1
3,CCn1c(=O)c(C(=O)Nc2nnc(-c3cscn3)s2)c(O)c2ccccc21,4

# Test system: Staphylococcus aureus
# Test: Antibacterial activity against methicillin-resistant Staphylococcus aureus clinical isolate 15-8 assessed as inhibition of bacterial growth incubated for 18 to 24 hrs by broth microdilution method
# Format: functional
# Conditions: time 18-24 hrs
row,Structure (SMILES),MIC [µg/mL]
1,CCn1c(=O)c(C(=O)Nc2nnc(C)s2)c(O)c2ccccc21,2
2,CCc1nnc(NC(=O)c2c(O)c3ccccc3n(CC)c2=O)s1,1
3,CCn1c(=O)c(C(=O)Nc2nnc(-c3cscn3)s2)c(O)c2ccccc21,4

# Test system: Staphylococcus aureus
# Test: Antibacterial activity against methicillin-resistant Staphylococcus aureus clinical isolate 15-9 assessed as inhibition of bacterial growth incubated for 18 to 24 hrs by broth microdilution method
# Format: functional
# Conditions: time 18-24 hrs
row,Structure (SMILES),MIC [µg/mL]
1,CCn1c(=O)c(C(=O)Nc2nnc(C)s2)c(O)c2ccccc21,4
2,CCc1nnc(NC(=O)c2c(O)c3ccccc3n(CC)c2=O)s1,1
3,CCn1c(=O)c(C(=O)Nc2nnc(-c3cscn3)s2)c(O)c2ccccc21,4

# Test system: Staphylococcus aureus
# Test: Antibacterial activity against methicillin resistant and vancomycin-intermediate sensitive Staphylococcus aureus ATCC 700699 assessed as inhibition of bacterial growth incubated for 18 to 24 hrs by broth microdilution method
# Format: functional
# Conditions: time 18-24 hrs
row,Structure (SMILES),MIC [µg/mL]
1,CCn1c(=O)c(C(=O)Nc2nnc(C)s2)c(O)c2ccccc21,> 64
2,CCc1nnc(NC(=O)c2c(O)c3ccccc3n(CC)c2=O)s1,2
3,CCn1c(=O)c(C(=O)Nc2nnc(-c3cscn3)s2)c(O)c2ccccc21,4

# Test system: Staphylococcus aureus
# Test: Antibacterial activity against methicillin resistant and vancomycin-intermediate sensitive Staphylococcus aureus ATCC 700788 assessed as inhibition of bacterial growth incubated for 18 to 24 hrs by broth microdilution method
# Format: functional
# Conditions: time 18-24 hrs
row,Structure (SMILES),MIC [µg/mL]
1,CCn1c(=O)c(C(=O)Nc2nnc(C)s2)c(O)c2ccccc21,> 64
2,CCc1nnc(NC(=O)c2c(O)c3ccccc3n(CC)c2=O)s1,2
3,CCn1c(=O)c(C(=O)Nc2nnc(-c3cscn3)s2)c(O)c2ccccc21,4

# Test system: Staphylococcus epidermidis
# Test: Antibacterial activity against methicillin-sensitive Staphylococcus epidermidis clinical isolate 15-3 assessed as inhibition of bacterial growth incubated for 18 to 24 hrs by broth microdilution method
# Format: functional
# Conditions: time 18-24 hrs
row,Structure (SMILES),MIC [µg/mL]
1,CCn1c(=O)c(C(=O)Nc2nnc(C)s2)c(O)c2ccccc21,> 64
2,CCc1nnc(NC(=O)c2c(O)c3ccccc3n(CC)c2=O)s1,2
3,CCn1c(=O)c(C(=O)Nc2nnc(-c3cscn3)s2)c(O)c2ccccc21,8

# Test system: Staphylococcus epidermidis
# Test: Antibacterial activity against methicillin-sensitive Staphylococcus epidermidis clinical isolate 15-4 assessed as inhibition of bacterial growth incubated for 18 to 24 hrs by broth microdilution method
# Format: functional
# Conditions: time 18-24 hrs
row,Structure (SMILES),MIC [µg/mL]
1,CCn1c(=O)c(C(=O)Nc2nnc(C)s2)c(O)c2ccccc21,> 64
2,CCc1nnc(NC(=O)c2c(O)c3ccccc3n(CC)c2=O)s1,2
3,CCn1c(=O)c(C(=O)Nc2nnc(-c3cscn3)s2)c(O)c2ccccc21,4

# Test system: Staphylococcus epidermidis
# Test: Antibacterial activity against methicillin-resistant Staphylococcus epidermidis clinical isolate 15-1 assessed as inhibition of bacterial growth incubated for 18 to 24 hrs by broth microdilution method
# Format: functional
# Conditions: time 18-24 hrs
row,Structure (SMILES),MIC [µg/mL]
1,CCn1c(=O)c(C(=O)Nc2nnc(C)s2)c(O)c2ccccc21,> 64
2,CCc1nnc(NC(=O)c2c(O)c3ccccc3n(CC)c2=O)s1,2
3,CCn1c(=O)c(C(=O)Nc2nnc(-c3cscn3)s2)c(O)c2ccccc21,4

# Test system: Staphylococcus epidermidis
# Test: Antibacterial activity against methicillin-resistant Staphylococcus epidermidis clinical isolate 15-2 assessed as inhibition of bacterial growth incubated for 18 to 24 hrs by broth microdilution method
# Format: functional
# Conditions: time 18-24 hrs
row,Structure (SMILES),MIC [µg/mL]
1,CCn1c(=O)c(C(=O)Nc2nnc(C)s2)c(O)c2ccccc21,> 64
2,CCc1nnc(NC(=O)c2c(O)c3ccccc3n(CC)c2=O)s1,2
3,CCn1c(=O)c(C(=O)Nc2nnc(-c3cscn3)s2)c(O)c2ccccc21,8

# Test system: Staphylococcus epidermidis
# Test: Antibacterial activity against methicillin-resistant Staphylococcus epidermidis clinical isolate 15-3 assessed as inhibition of bacterial growth incubated for 18 to 24 hrs by broth microdilution method
# Format: functional
# Conditions: time 18-24 hrs
row,Structure (SMILES),MIC [µg/mL]
1,CCc1nnc(NC(=O)c2c(O)c3ccccc3n(CC)c2=O)s1,2
2,CCn1c(=O)c(C(=O)Nc2nnc(-c3cscn3)s2)c(O)c2ccccc21,4

# Test system: Enterococcus faecalis
# Test: Antibacterial activity against Enterococcus faecalis clinical isolate 15-1 assessed as inhibition of bacterial growth incubated for 18 to 24 hrs by broth microdilution method
# Format: functional
# Conditions: time 18-24 hrs
row,Structure (SMILES),MIC [µg/mL]
1,CCn1c(=O)c(C(=O)Nc2nnc(C)s2)c(O)c2ccccc21,> 64
2,CCc1nnc(NC(=O)c2c(O)c3ccccc3n(CC)c2=O)s1,2
3,CCn1c(=O)c(C(=O)Nc2nnc(-c3cscn3)s2)c(O)c2ccccc21,4

# Test system: Enterococcus faecalis
# Test: Antibacterial activity against Enterococcus faecalis clinical isolate 15-2 assessed as inhibition of bacterial growth incubated for 18 to 24 hrs by broth microdilution method
# Format: functional
# Conditions: time 18-24 hrs
row,Structure (SMILES),MIC [µg/mL]
1,CCn1c(=O)c(C(=O)Nc2nnc(C)s2)c(O)c2ccccc21,> 64
2,CCc1nnc(NC(=O)c2c(O)c3ccccc3n(CC)c2=O)s1,2
3,CCn1c(=O)c(C(=O)Nc2nnc(-c3cscn3)s2)c(O)c2ccccc21,4

# Test system: Enterococcus faecium
# Test: Antibacterial activity against Enterococcus faecium clinical isolate 15-1 assessed as inhibition of bacterial growth incubated for 18 to 24 hrs by broth microdilution method
# Format: functional
# Conditions: time 18-24 hrs
row,Structure (SMILES),MIC [µg/mL]
1,CCn1c(=O)c(C(=O)Nc2nnc(C)s2)c(O)c2ccccc21,> 64
2,CCc1nnc(NC(=O)c2c(O)c3ccccc3n(CC)c2=O)s1,4
3,CCn1c(=O)c(C(=O)Nc2nnc(-c3cscn3)s2)c(O)c2ccccc21,8

# Test system: Enterococcus faecium
# Test: Antibacterial activity against Enterococcus faecium clinical isolate 15-2 assessed as inhibition of bacterial growth incubated for 18 to 24 hrs by broth microdilution method
# Format: functional
# Conditions: time 18-24 hrs
row,Structure (SMILES),MIC [µg/mL]
1,CCn1c(=O)c(C(=O)Nc2nnc(C)s2)c(O)c2ccccc21,> 64
2,CCc1nnc(NC(=O)c2c(O)c3ccccc3n(CC)c2=O)s1,2
3,CCn1c(=O)c(C(=O)Nc2nnc(-c3cscn3)s2)c(O)c2ccccc21,4

# Test system: Enterococcus faecalis
# Test: Antibacterial activity against vancomycin-resistant Enterococcus faecalis ATCC 51299 assessed as inhibition of bacterial growth incubated for 18 to 24 hrs by broth microdilution method
# Format: functional
# Conditions: time 18-24 hrs
row,Structure (SMILES),MIC [µg/mL]
1,CCn1c(=O)c(C(=O)Nc2nnc(C)s2)c(O)c2ccccc21,> 64
2,CCc1nnc(NC(=O)c2c(O)c3ccccc3n(CC)c2=O)s1,8
3,CCn1c(=O)c(C(=O)Nc2nnc(-c3cscn3)s2)c(O)c2ccccc21,32

# Test system: Enterococcus faecalis
# Test: Antibacterial activity against vancomycin-resistant Enterococcus faecalis ATCC 700802 assessed as inhibition of bacterial growth incubated for 18 to 24 hrs by broth microdilution method
# Format: functional
# Conditions: time 18-24 hrs
row,Structure (SMILES),MIC [µg/mL]
1,CCn1c(=O)c(C(=O)Nc2nnc(C)s2)c(O)c2ccccc21,> 64
2,CCc1nnc(NC(=O)c2c(O)c3ccccc3n(CC)c2=O)s1,8
3,CCn1c(=O)c(C(=O)Nc2nnc(-c3cscn3)s2)c(O)c2ccccc21,32

# Test system: Enterococcus faecalis
# Test: Antibacterial activity against vancomycin-resistant Enterococcus faecalis ATCC 51575 assessed as inhibition of bacterial growth incubated for 18 to 24 hrs by broth microdilution method
# Format: functional
# Conditions: time 18-24 hrs
row,Structure (SMILES),MIC [µg/mL]
1,CCn1c(=O)c(C(=O)Nc2nnc(C)s2)c(O)c2ccccc21,> 64
2,CCc1nnc(NC(=O)c2c(O)c3ccccc3n(CC)c2=O)s1,8
3,CCn1c(=O)c(C(=O)Nc2nnc(-c3cscn3)s2)c(O)c2ccccc21,32

# Test system: not listed separately
# Test: Inhibition of Staphylococcus aureus Gyrase B using linear pBR322 DNA as substrate incubated for 30 mins in presence of ATP by ADP-Glo assay
# Conditions: not given
row,IC50 [nM],Structure (SMILES)
1,1750,CCn1c(=O)c(C(=O)Nc2nnc(-c3cccc(C)c3)s2)c(O)c2ccccc21
2,550,CCn1c(=O)c(C(=O)Nc2nnc(C3CCCCC3)s2)c(O)c2ccccc21
3,350,CCCCCCc1nnc(NC(=O)c2c(O)c3ccccc3n(CC)c2=O)s1

# More lines, now with the values behind:
row,Structure (SMILES),IC50 [nM]
1,CCn1c(=O)c(C(=O)Nc2nnc(-c3ccc(OC(F)F)cc3)s2)c(O)c2ccccc21,1420
2,CCOc1cccc(-c2nnc(NC(=O)c3c(O)c4ccccc4n(CC)c3=O)s2)c1,1690
3,CCn1c(=O)c(C(=O)Nc2nnc(C)s2)c(O)c2ccccc21,240
4,CCc1nnc(NC(=O)c2c(O)c3ccccc3n(CC)c2=O)s1,450
5,CCn1c(=O)c(C(=O)Nc2nnc(-c3cscn3)s2)c(O)c2ccccc21,160
